Columns and labels:
[1] = Acute toxicity in Wister rats (Lichtfield and Wilcoxon); conditions: in vivo, rat, mortality within 8 days, read-out: DL50 and range
Description: (§1) The acute toxicity of PEV has been investigated on Swiss albino mice of about 20 grams average weight and in Wister rats of 150±10 grams average weight by administration both through the oral route and by the endoperitoneal route.
(§2) All the animals fasted beginning 12 hours before the experiment. For the experiment, there are used 10 animals that is 5 males and 5 females for each dosage level of treatment. The values of […] are expressed in mg/kg and are calculated on the basis of the mortality which has been determined within 8 days after the administration in accordance with the method of Lichtfield and Wilcoxon.

Solubility = format: physicochemical
[2] = Acute toxicity in Swiss albino mice (Lichtfield and Wilcoxon); conditions: in vivo, mouse, mortality within 8 days, read-out: DL50 and range
Description: as §1, §2

[3] = Pharmacokinetics: plasma levels of valproic acid in Sprague-Dawley rats; format: in vivo; conditions: rat
Description: The test tubes are then removed from the ice and are stirred for a period of ten minutes. Centrifugation is carried out for the purpose of separating the phases and the organic phase in n-hexane is directly injected into the gas-chromatographic apparatus.
The study of plasma levels is carried out on Sprague-Dawley albino rats of an average body weight of 215 grams (200-230). Prior to the experiment, the rats fasted for a period of twelve hours. The acid is administered both orally and intravenously, but the ester alone is administered orally. The administrations are carried out with equimolar doses, that is in the dose of 1.39 millimole/kg which corresponds to a dose of 230 mg/kg in the case of the acid administered as the sodium salt and a dose of 360 mg/kg in the case of PEV. Both the acid as well as the ester are dissolved in ethyleneglycol:ethyl alcohol in the proportion of 65-35 (V/V). The concentration of the solution is calculated in a manner to administer 2 cc/kg. After the intervals of time shown in Table 2 in minutes or in hours, the rats in groups of six, are killed by decapitation, the blood is collected and centrifuged for the purpose of obtaining the plasma which is extracted and analyzed as previously described.
On the basis of the results, it is concluded that PEV is absorbed more rapidly, but even more significant, more uniformly compared with valproic acid. An index of the dispersion of the data has been calculated by determining the standard variation in percent with respect to the average value for each group under examination.

Wister rats = conditions: rat, oral, literature value; cited from earlier work

Compound | LD50 at 192 h ([1]; ip, endoperitoneal) [mg/kg] | LD50 at 192 h ([1]; oral) [mg/kg] | Solubility in alcohols, ethers, ketones (Solubility; alcohols, ethers, ketones) | Solubility in water (Solubility; water) | LD50 at 192 h ([2]; ip, endoperitoneal) [mg/kg] | LD50 at 192 h ([2]; oral) [mg/kg] | Absolute biodisponibility ([3]; in vivo) [%] | Average index of dispersion of plasma levels (standard variation in percent of average) ([3]; in vivo, po) | Difference in biodisponibility in favor of the ester ([3]; in vivo, po) [%] | Presence of PEV (intact ester) in the plasma ([3]; orally, 1.39 mmoles/kg) | bioavailability ([3]; in vivo, 1390 umol/kg, oral, from AUC versus i.v., read-out: Absolute biodisponibility) [%] | DL50 (Merck Index, 9th Edition) (Wister rats) [mg/kg] | Average index of dispersion of plasma levels (standard variation in percent of average) ([3]; in vivo, iv)
CCCC(CCC)C(=O)OCOC(=O)C(C)(C)C [PEV, pivaloyloxymethyl 2-propyl-pentanoate] | 608 | 1440 | soluble in alcohols, ethers, ketones | insoluble in water | 510 | 1210 | 72.4 | 15.2 | 45.5 | none of the rats treated with the ester have exhibited the presence of PEV in the plasma | – | – | –
CCCC(CCC)C(=O)[O-].[Na+] [sodium valproate, reference compound] | – | – | – | – | – | – | – | – | – | – | 49.9 | – | –
CCCC(CCC)C(=O)O [valproic acid, 2-propyl-pentanoic acid] | – | – | – | – | – | – | – | 60.5 | – | – | – | 670 | 18.3

From patent US4442124A, “Valproic acid ester with antiepileptic and anticonvulsant activity and pharmaceutical compositions therefrom” (priority 1979, dated 1984)
